Assay results: patent US11254663B2 (BRISTOL-MYERS SQUIBB COMPANY, priority 2019, dated 2022)

The molecules below were run against FXR (Homo sapiens (Human), UniProt Q96RI1) (assay: transient human FXR/Gal4-luciferase reporter assay). Conditions: not given.
Sequence of FXR (Q96RI1 262-486): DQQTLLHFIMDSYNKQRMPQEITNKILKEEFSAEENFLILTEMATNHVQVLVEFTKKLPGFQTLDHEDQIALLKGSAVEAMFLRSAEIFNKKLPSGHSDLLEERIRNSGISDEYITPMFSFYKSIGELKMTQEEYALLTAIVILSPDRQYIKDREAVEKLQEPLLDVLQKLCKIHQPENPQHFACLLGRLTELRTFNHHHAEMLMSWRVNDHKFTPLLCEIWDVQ
Format: cell-based
Experimental: A Gal4-hFXR fusion construct reporter system was used as the primary assay to characterize compound activity. A construct including 5 copies of the Gal4 promoter response element upstream of a firefly luciferase reporter cDNA was stably expressed in HEK293 cells. This reporter cell line was maintained in Dulbecco's Modified Eagle's medium (DMEM; Gibco) supplemented with 1% penicillin-streptomycin (P/S) solution, 500 μg/mL Zeocin and 10% charcoal/dextran-treated fetal bovine serum (cs-FBS) at 37° C. in a humidified 5% CO2 atmosphere. Another plasmid was constructed in which the human cytomegalovirus promoter in the pcDNA3.1 vector directs the expression of the cDNA encoding a fusion protein comprised of the DNA binding domain from the Gal4 transcription factor fused to the ligand binding domain from human FXR.
The day prior to transfection, the reporter cells in culture are detached from the plate with trypsin and plated into a T75 flask at a sufficient density to achieve approximately 90% confluence the next morning. The transfection reagents are prepared by separately diluting 25 μg of the pcDNA3.1-Gal4-FXR plasmid into 1.87 mL of Opti-MEM (Thermo-Fisher), and 40 μL of Lipofectamine 2000 (Thermo-Fisher) into 1.87 mL of Opti-MEM, and then adding the diluted DNA solution into the diluted Lipofectamine 2000 solution and incubating at room temperature for 15-20 minutes. The mixture is further diluted with 10 mL of a solution comprised of DMEM, 10% cs-FBS, and 1% P/S immediately prior to transferring to the cells. The maintenance culture media is aspirated from the cells and the final transfection mixture is added before the cells are incubated overnight at 37° C. in a humidified 5% CO2 atmosphere. This protocol can be scaled up, and the transiently transfected cells can be cryopreserved in an assay-ready format.
For compound testing, 100 nL of the compounds (serial dilutions in DMSO) are dispensed with an Echo acoustic dispenser (Labcyte) into the wells of a Corning/Costar clear bottom 384-well white plate. The transfected cells are harvested, counted, and diluted such that 10-25,000 cells in 25 μL are plated into each well of the 384-well compound assay plate. The compound-treated cells are incubated overnight at 37° C. in a humidified 5% CO2 atmosphere. The next morning 25 μL of Steady-Glo (Promega) are added to each well of the plate, the mixture is incubated for 15 min. with shaking, and luminescence is measured on an Envision (Perkin Elmer) plate reader.
`CCc1cnc(-c2ccnc(N(CC34CCC(c5noc(C(C)(C)C)n5)(CC3)CC4)C(=O)C34CC(F)(C3)C4)c2)nc1` [Example 543, N-((4-(5-(tert-butyl)-1,2,4-oxadiazol-3-yl)bicyclo[2.2.2]octan-1-yl)methyl)-N-(4-(5-ethylpyrimidin-2-yl)pyridin-2-yl)-3-fluorobicyclo[1.1.1]pentane-1-carboxamide] showed an EC50 of 14 nM.

Same assay, conditions: Gal4-hFXR fusion construct, HEK293 reporter cells; response relative to 8 μM GW-4064
`CC(C)OC(=O)NC12CCC(CN(C(=O)C3CC(O)(C(F)(F)F)C3)c3cccc(-c4ccc(C(C)(C)O)cc4)c3)(CC1)CC2` (stereo not drawn) [Example 602, Isopropyl (4-(((cis)-3-hydroxy-N-(4′-(2-hydroxypropan-2-yl)-[1,1′-biphenyl]-3-yl)-3-(trifluoromethyl)cyclobutane-1-carboxamido)methyl)bicyclo[2.2.2]octan-1-yl)carbamate] was tested, and the EC50 was 142 nM. With `O=C(N(CC12CCC(c3nc(C4CC4)no3)(CC1)CC2)c1cccc(-c2cnc3cccnn23)c1)C12CC(F)(C1)C2` [Example 318, N-((4-(3-cyclopropyl-1,2,4-oxadiazol-5-yl)bicyclo[2.2.2]octan-1-yl)methyl)-3-fluoro-N-(3-(imidazo[1,2-b]pyridazin-3-yl)phenyl)bicyclo[1.1.1]pentane-1-carboxamide] the EC50 was 172 nM. In the case of `CC(C)c1nc(C23CCC(CN(C(=O)C45CC(F)(C4)C5)c4cccc(-c5ccc(OC(F)F)cc5)c4)(CC2)CC3)no1` [Example 436, N-(4′-(difluoromethoxy)-[1,1′-biphenyl]-3-yl)-3-fluoro-N-((4-(5-isopropyl-1,2,4-oxadiazol-3-yl)bicyclo[2.2.2]octan-1-yl)methyl)bicyclo[1.1.1]pentane-1-carboxamide], the EC50 is reported as 46 nM. `COc1ccc(C23CCC(CN(C(=O)C4CC(F)(F)C4)c4cccc(-c5ccc6nc(C)sc6c5)c4)(CC2)CO3)cc1` [Example 557, 3,3-Difluoro-N-((1-(4-methoxyphenyl)-2-oxabicyclo[2.2.2]octan-4-yl)methyl)-N-(3-(2-methylbenzo[d]thiazol-6-yl)phenyl)cyclobutane-1-carboxamide] was tested, and the EC50 was 1580 nM. For `CC(C)(C)COC(=O)N(CC12CCC(c3noc(C(C)(F)F)n3)(CC1)CC2)c1cc(-c2ccc(C(C)(C)O)cc2)c(F)cn1` [Example 619, Neopentyl ((4-(5-(1,1-difluoroethyl)-1,2,4-oxadiazol-3-yl)bicyclo[2.2.2]octan-1-yl)methyl) (5-fluoro-4-(4-(2-hydroxypropan-2-yl)phenyl)pyridin-2-yl) carbamate], the EC50 was 28 nM. In the case of `CCOc1ccc(-c2cccc(N(CC34CCC(c5nc(C(C)C)no5)(CC3)CC4)C(=O)C34CC(F)(C3)C4)c2)cn1` [Example 381, N-(3-(6-ethoxypyridin-3-yl)phenyl)-3-fluoro-N-((4-(3-isopropyl-1,2,4-oxadiazol-5-yl)bicyclo[2.2.2]octan-1-yl)methyl)bicyclo[1.1.1]pentane-1-carboxamide], the EC50 is reported as 40 nM. For `COc1cc(-c2cccc(N(CC34CCC(c5cc(C(F)(F)F)ccn5)(CC3)CC4)C(=O)C34CC(F)(C3)C4)c2)ccn1` [Example 241, 3-fluoro-N-(3-(2-methoxypyridin-4-yl)phenyl)-N-((4-(4-(trifluoromethyl)pyridin-2-yl)bicyclo[2.2.2]octan-1-yl)methyl)bicyclo[1.1.1]pentane-1-carboxamide], the EC50 was 1060 nM. `O=C(N(CC12CCC(c3ccc(C(F)(F)F)cn3)(CC1)CC2)c1cccc(-c2ccc(OC(F)F)cn2)c1)C12CC(F)(C1)C2` [Example 495, N-(3-(5-(difluoromethoxy)pyridin-2-yl)phenyl)-3-fluoro-N-((4-(5-(trifluoromethyl)pyridin-2-yl)bicyclo[2.2.2]octan-1-yl)methyl)bicyclo[1.1.1]pentane-1-carboxamide] showed an EC50 of 271 nM. Molecule `O=C(N(CC12CCC(c3nc(C4CC4)no3)(CC1)CC2)c1cccc(-c2cnc(C3CC3)nc2)c1)C12CC(F)(C1)C2` [Example 271, N-((4-(3-cyclopropyl-1,2,4-oxadiazol-5-yl)bicyclo[2.2.2]octan-1-yl)methyl)-N-(3-(2-cyclopropylpyrimidin-5-yl)phenyl)-3-fluorobicyclo[1.1.1]pentane-1-carboxamide] has an EC50 of 23 nM. `O=C(N(CC12CCC(c3nc(C4CC4)no3)(CC1)CC2)c1cccc(-c2ccc3c(c2)OCO3)c1)C12CC(F)(C1)C2` [Example 255, N-(3-(benzo[d][1,3]dioxol-5-yl)phenyl)-N-((4-(3-cyclopropyl-1,2,4-oxadiazol-5-yl)bicyclo[2.2.2]octan-1-yl)methyl)-3-fluorobicyclo[1.1.1]pentane-1-carboxamide] was tested, and the EC50 was 69.8 nM. With `COc1cc(-c2cccc(N(CC34CCC(c5nnc(C6CC6)o5)(CC3)CC4)C(=O)C34CC(F)(C3)C4)c2)ccn1` [Example 342, N-((4-(5-cyclopropyl-1,3,4-oxadiazol-2-yl)bicyclo[2.2.2]octan-1-yl)methyl)-3-fluoro-N-(3-(2-methoxypyridin-4-yl)phenyl)bicyclo[1.1.1]pentane-1-carboxamide] the EC50 was 120 nM. Molecule `COc1nccc(-c2cccc(N(CC34CCC(c5nc(C6CC6)no5)(CC3)CC4)C(=O)C34CC(F)(C3)C4)c2)n1` [Example 242, N-((4-(3-cyclopropyl-1,2,4-oxadiazol-5-yl)bicyclo[2.2.2]octan-1-yl)methyl)-3-fluoro-N-(3-(2-methoxypyrimidin-4-yl)phenyl)bicyclo[1.1.1]pentane-1-carboxamide] has an EC50 of 276 nM. `COc1ncc(-c2cccc(N(CC34CCC(c5ccc(C6(C#N)CC6)cc5)(CC3)OC4)C(=O)C34CC(F)(C3)C4)c2)cn1` [Example 351, N-((1-(4-(1-cyanocyclopropyl)phenyl)-2-oxabicyclo[2.2.2]octan-4-yl)methyl)-3-fluoro-N-(3-(2-methoxypyrimidin-5-yl)phenyl)bicyclo[1.1.1]pentane-1-carboxamide] gave an EC50 of 266 nM. `O=C(N(CC12CCC(c3nc(C4CC4)no3)(CC1)CC2)c1cccc(-c2nc3cc(F)ccc3o2)c1)C12CC(F)(C1)C2` [Example 559, N-((4-(3-Cyclopropyl-1,2,4-oxadiazol-5-yl)bicyclo[2.2.2]octan-1-yl)methyl)-3-fluoro-N-(3-(5-fluorobenzo[d]oxazol-2-yl)phenyl)bicyclo[1.1.1]pentane-1-carboxamide] gave an EC50 of 217 nM. In the case of `CS(=O)(=O)Nc1ccc(-c2cncc(N(CC34CCC(c5nc(C6CC6)no5)(CC3)CC4)C(=O)C34CC(F)(C3)C4)c2)cc1` [Example 427], the EC50 is reported as 671 nM. `COc1ncc(-c2cccc(N(CC34CCC(c5nnc(C6CC6)o5)(CC3)CC4)C(=O)C34CC(F)(C3)C4)c2)cn1` [Example 341, N-((4-(5-cyclopropyl-1,3,4-oxadiazol-2-yl)bicyclo[2.2.2]octan-1-yl)methyl)-3-fluoro-N-(3-(2-methoxypyrimidin-5-yl)phenyl)bicyclo[1.1.1]pentane-1-carboxamide] was tested, and the EC50 was 287 nM. `O=C(C1CC(O)(C(F)(F)F)C1)N(CC12CCC(C(=O)NS(=O)(=O)C3CC3)(CC1)CC2)c1cccc(-c2ccc(OC(F)F)cc2)c1` (stereo not drawn) [Example 638, N-(cyclopropylsulfonyl)-4-(((cis)-N-(4′-(difluoromethoxy)-[1,1′-biphenyl]-3-yl)-3-hydroxy-3-(trifluoromethyl)cyclobutane-1-carboxamido)methyl)bicyclo[2.2.2]octane-1-carboxamide] was tested, and the EC50 was 2000 nM. `Cc1nc2ccc(-c3cccc(N(CC45CCC(c6nc(C7CC7)no6)(CC4)OC5)C(=O)C45CC(F)(C4)C5)c3)cc2s1` [Example 564, N-((1-(3-cyclopropyl-1,2,4-oxadiazol-5-yl)-2-oxabicyclo[2.2.2]octan-4-yl)methyl)-3-fluoro-N-(3-(2-methylbenzo[d]thiazol-6-yl)phenyl)bicyclo[1.1.1]pentane-1-carboxamide] gave an EC50 of 207 nM. Molecule `Cc1cc(-c2cccc(N(CC34CCC(c5nc(C6CC6)no5)(CC3)CC4)C(=O)C34CC(F)(C3)C4)c2)cnc1F` [Example 247, N-((4-(3-cyclopropyl-1,2,4-oxadiazol-5-yl)bicyclo[2.2.2]octan-1-yl)methyl)-3-fluoro-N-(3-(6-fluoro-5-methylpyridin-3-yl)phenyl)bicyclo[1.1.1]pentane-1-carboxamide] has an EC50 of 341 nM. `CC(C)(C)c1noc(C23CCC(CN(C(=O)C45CC(F)(C4)C5)c4cccc(-c5cnc(NS(C)(=O)=O)nc5)c4)(CC2)CC3)n1` [Example 367, N-((4-(3-(tert-butyl)-1,2,4-oxadiazol-5-yl)bicyclo[2.2.2]octan-1-yl)methyl)-3-fluoro-N-(3-(2-(methylsulfonamido)pyrimidin-5-yl)phenyl)bicyclo[1.1.1]pentane-1-carboxamide] showed an EC50 of 645 nM.
